Common to all, as to format: in vivo
Assay [1] deals with Amaranthus retroflexus (AMARE). The experiment in a line: Post-emergence biological efficacy, glasshouse, 500 or 1000 g/ha, evaluated after 13 days (100=total damage to plant; 0=no damage to plant). The note with it: Amaranthus retroflexus, 312 h, read-out: Percentage damage caused to weed species, post-emergence, AMARE; for pest or weed control at 1000 g/ha: rate 1,000 g/ha. Put shortly: (§1)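 Damage is scored on pot-grown plants, sown in standard soil and sprayed after emergence, that were held post-treatment in a glasshouse (24/16° C. day/night, 14 hours light, 65% humidity).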

For assay [2], the system named is Solanum nigrum (SOLNI). The description is as above. The note with it: Solanum nigrum, 312 h, read-out: Percentage damage caused to weed species, post-emergence, SOLNI; for pest or weed control at 1000 g/ha: rate 1,000 g/ha. Put shortly: as §1
In assay [3] the test system is Alopecurus myosuroides (ALOMY). The assay is described as above. The note with it: Alopecurus myosuroides, 312 h, read-out: Percentage damage caused to weed species, post-emergence, ALOMY; for pest or weed control at 1000 g/ha: rate 1,000 g/ha. The essentials: as §1
The subject of assay [4] is Setaria faberi (SETFA). The description is as above. The note with it: Setaria faberi, 312 h, read-out: Percentage damage caused to weed species, post-emergence, SETFA; for pest or weed control at 1000 g/ha: rate 1,000 g/ha. Put shortly: as §1
The test system of assay [5] is Ipomoea hederaceae (IPOHE). Described as above. The following applies: Ipomoea, 312 h, read-out: Percentage damage caused to weed species, post-emergence, IPOHE; for pest or weed control at 1000 g/ha: rate 1,000 g/ha. Put shortly:
as §1

For assay [6], the system named is Echinochloa crusgaffi (ECHCG). Described as above. The note with it: Echinochloa, 312 h, read-out: Percentage damage caused to weed species, post-emergence, ECHCG; for pest or weed control at 1000 g/ha: rate 1,000 g/ha. Put shortly: as §1
The subject of assay [7] is Amaranthus retroflexus (AMARE). The assay is described as follows: Pre-emergence biological efficacy, glasshouse, 1000 g/ha, evaluated after 13 days (100=total damage to plant; 0=no damage to plant). The note with it: Amaranthus retroflexus, 312 h, read-out: Percentage damage caused to weed species, pre-emergence, AMARE; for pest or weed control at 1000 g/ha: rate 1,000 g/ha. The essentials:
(§2)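 Seeds were sown in standard soil in pots, then grown in a controlled glasshouse at 24/16° C. day/night, 14 hours light and 65% humidity, with watering twice daily.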

The subject of assay [8] is Solanum nigrum (SOLNI). The description is as above. The note with it: Solanum nigrum, 312 h, read-out: Percentage damage caused to weed species, pre-emergence, SOLNI; for pest or weed control at 1000 g/ha: rate 1,000 g/ha. The essentials:
as §2

The test system of assay [9] is Alopecurus myosuroides (ALOMY). Described as above. The note with it: Alopecurus myosuroides, 312 h, read-out: Percentage damage caused to weed species, pre-emergence, ALOMY; for pest or weed control at 1000 g/ha: rate 1,000 g/ha. The essentials:
as §2

Assay [10] deals with Setaria faberi (SETFA). Described as above. The note with it: Setaria faberi, 312 h, read-out: Percentage damage caused to weed species, pre-emergence, SETFA; for pest or weed control at 1000 g/ha: rate 1,000 g/ha. The essentials:
as §2

Assay [11] deals with Echinochloa crus-galli (ECHCG). The description is as above. The note with it: Echinochloa crus-galli, 312 h, read-out: Percentage damage caused to weed species, pre-emergence, ECHCG; for pest or weed control at 1000 g/ha: rate 1,000 g/ha. The essentials: as §2
Assay [12] concerns Ipomoea hederaceae (IPOHE). Described as above. The following applies: Ipomoea, 312 h, read-out: Percentage damage caused to weed species, pre-emergence, IPOHE; for pest or weed control at 1000 g/ha: rate 1,000 g/ha. Put shortly: as §2

As to `COC(=O)c1nc(-c2ccc(Cl)c(F)c2)nc2c1ccn2Cc1ccccc1` [Compound 6-18, 2-(4-Chloro-3-fluorophenyl)-4-methoxycarbonyl-7-phenylmethyl-7H-pyrrolo[2,3-d]pyrimidine], the pest or weed control at 1000 g/ha in assay [1] amounted to 0%; in assay [2], 40%; in [3], 0%; in assay [4] it was 0%; in assay [5], 20%; in [6], 0%. The pest or weed control at 1000 g/ha in assay [7], in [8], in assay [9], in [10], in assay [11] and in [12] was 0% each time.

With `Cc1cc2c(C(=O)O)nc(-c3ccc(Cl)c(F)c3)nc2n1Cc1ccccc1` [Compound 6-21, 4-Carboxy-2-(4-chloro-3-fluorophenyl)-6-methyl-7-phenylmethyl-7H-pyrrolo[2,3-d]pyrimidine], the pest or weed control at 250 g/ha in [1] (rate 250 g/ha) stood at 0%; in assay [2] (rate 250 g/ha), 10%; in [3] (rate 250 g/ha), 10%; in [4] (rate 250 g/ha), 0%; in assay [5] (rate 250 g/ha), 10%; in [6] (rate 250 g/ha), 0%. Moreover, the pest or weed control at 250 g/ha in assay [7] (rate 250 g/ha), in assay [8] (rate 250 g/ha), in [9] (rate 250 g/ha), in assay [10] (rate 250 g/ha), in [11] (rate 250 g/ha) and in assay [12] (rate 250 g/ha) was 0% in each case.

On to `COc1c(Cl)ccc(-c2nc(C(=O)O)c3c(C)cn(Cc4ccccc4)c3n2)c1F` [Compound 6-63, 7-Benzyl-4-carboxy-2-(4-chloro-2-fluoro-3-methoxyphenyl)-5-methyl-7H-pyrrolo[2,3-d]pyrimidine], for which the pest or weed control at 1000 g/ha in assay [1] came to 80%; in assay [2], 70%; in assay [3], 10%; in [4], 50%; in assay [5], 60%; in assay [6], 40%. Moreover, the pest or weed control at 1000 g/ha in assay [7], in [8], in [9], in assay [10], in assay [11] and in assay [12] was 0% each time.

For the molecule `COC(=O)c1nc(-c2ccc(Cl)c(OC)c2F)nc2c1c(C)cn2Cc1ccccc1` [Compound 6-64, 2-(4-Chloro-2-fluoro-3-methoxyphenyl)-4-methoxycarbonyl-5-methyl-7-phenylmethyl-7H-pyrrolo[2,3-d]pyrimidine], the pest or weed control at 1000 g/ha in [1] was determined as 20%; in [2], 70%; in [3], 0%; in assay [4], 0%; in [5], 50%; in [6], 0%. The pest or weed control at 1000 g/ha in [7] was found to be 50%; in [8], 50%; in [9] it was 0%; in [10], 0%; in assay [11] it was 0%; in [12] it was 30%.

`COc1c(Cl)ccc(-c2nc(C(=O)O)c3cc(C)n(Cc4ccccc4)c3n2)c1F` [Compound 6-65, 4-Carboxy-2-(4-chloro-2-fluoro-3-methoxyphenyl)-6-methyl-7-phenylmethyl-7H-pyrrolo[2,3-d]pyrimidine]: the pest or weed control at 1000 g/ha turned out to be 20% in assay [1]; 80% in [2]; 0% in [3]; 0% in assay [4]; 40% in assay [5]; 0% in [6]. Also, the pest or weed control at 1000 g/ha in [7], in assay [8], in [9], in [10], in assay [11] and in assay [12] was 0% throughout.

For `COC(=O)c1nc(-c2ccc(Cl)c(OC)c2F)nc2c1cc(C)n2Cc1ccccc1` [Compound 6-66, 2-(4-Chloro-2-fluoro-3-methoxyphenyl)-4-methoxycarbonyl-6-methyl-7-phenylmethyl-7H-pyrrolo[2,3-d]pyrimidine], the pest or weed control at 1000 g/ha in assay [1] was 40%; in [2], 80%; in [3], 0%; in [4], 10%; in assay [5], 40%; in assay [6], 0%. In addition, the pest or weed control at 1000 g/ha is 10% in assay [7]; 20% in [8]; 0% in assay [9]; 0% in assay [10]; 0% in assay [11]; 0% in [12].

As to `COc1c(Cl)ccc(-c2nc(C(=O)O)c3c(C)cn(C(C)c4ccccc4)c3n2)c1F` (stereo not drawn) [Compound 7-63, 4-Carboxy-2-(4-chloro-2-fluoro-3-methoxyphenyl)-5-methyl-7-(1-phenyl-ethyl)-7H-pyrrolo[2,3-d]pyrimidine], the pest or weed control at 1000 g/ha in [1] was found to be 20%; in assay [2] it was 60%; in assay [3], 0%; in assay [4], 10%; in assay [5] it was 10%; in assay [6] it was 0%. The pest or weed control at 1000 g/ha in [7], in [8], in assay [9], in [10], in assay [11] and in [12] was 0% each time.

With `O=C(O)c1nc(C2CC2)nc2c1ccn2Cc1ccccc1[N+](=O)[O-]` [Compound 8-1, 4-Carboxy-2-cyclopropyl-7-(2-nitrophenyl-methyl)-7H-pyrrolo[2,3-d]pyrimidine], the pest or weed control at 1000 g/ha in assay [1] turned out to be 0%; in assay [2], 30%; in assay [3], 0%; in assay [4], 0%; in assay [5], 40%; in [6] it was 10%. The pest or weed control at 1000 g/ha in [7], in [8], in assay [9], in assay [10], in [11] and in [12] was 0% throughout.

Values taken from patent US20120202690A1, “HERBICIDAL COMPOUNDS” (SYNGENTA LIMITED, priority 2009, published 2012).
